Patent US11458149B1, “TEAD inhibitors and uses thereof” (Ikena Oncology, Inc., priority 2019, dated 2022)

Experiments:
[1] = system: H28; experiment: Anti-proliferation assay in H28 cells; assay type: cell-based; conditions: Homo sapiens, NCI-H28
Procedure: (§1) Certain compounds were tested in TEAD reporter assay, and in H226 and H28. A: EC50<0.1 uM; B: 0.1 uM≤EC50≤0.5 uM; C: EC50>0.5 uM.
(§2) Individual cell lines were grown in medium according to supplier instructions and seeded into 96-well plates at a density that ensured logarithmic growth over 72 hours. TEAD inhibitor compounds were administered to cells at a top concentration of 10 μm and subsequently a 10 point 3-fold serial dilution was conducted. After 72 hours, proliferation was quantified using Cell TITERGLO™ (Promega, Inc.) and compared to vehicle control. IC50 and EC50 values were generated using XLFit curve fitting software.
The effect of isomer 2 of compound I-12 on cell proliferation is dependent on the presence of a Hippo/NF2 mutation. No effect is seen by isomer 2 of compound I-12 on the NF2 wild-type H28 cell line.

[2] = system: TEAD; experiment: TEAD reporter assay (Hippo Pathway TEAD Reporter - MCF7 cell line, luciferase); assay type: cell-based, human; conditions: Homo sapiens, MCF7, TEAD Reporter - MCF7 cells; read-out: TEAD Reporter Assay EC50
Source text: TEAD inhibition can be assayed using Hippo Pathway TEAD Reporter—MCF7 Cell Line (BPS Bioscience, Catalog #: 60618).
The TEAD Reporter—MCF7 cell line contains the firefly luciferase gene under the control of TEAD responsive elements stably integrated into the human breast cancer cell line, MCF7. Inside the cells, basal unphosphorylated YAP/TAZ remains in the nucleus and induces the constitutive expression of luciferase reporter. The cell line is validated for the inhibition of the expression of luciferase reporter by the activators of the Hippo pathway.
• 1) Harvest TEAD Reporter—MCF7 cells from culture in growth medium and seed cells at a density of 35,000 cells per well into white clear-bottom 96-well microplate in 45 μl of assay medium. • 2) Incubate cells at 37° C. in a CO2 incubator for overnight. • 3) Dilute the activators (H2O2 or okadaic acid) stock in assay medium. Add 5 μl of diluted activators to the wells. The final concentration of DMSO in assay medium is 0.1%. • 4) Add 5 μl of assay medium with same concentration of DMSO without activator to control wells. • 5) Add 50 μl of assay medium with DMSO to cell-free control wells (for determining background luminescence). • 6) Set up each treatment in at least triplicate. • 7) Incubate cells at 37° C. in a CO2 incubator for 5-6 hours. • 8) Perform luciferase assay using the ONE-Step™ Luciferase Assay System following the protocol provided: Add 100 μl of ONE-Step™ Luciferase reagent per well and rock at room temperature for ˜15 minutes. Measure luminescence using a luminometer. • 9) Data Analysis: Obtain the background-subtracted luminescence by subtracting the average background luminescence (cell-free control wells) from the luminescence reading of all wells.
as §1

[3] = system: H226; experiment: Anti-proliferation assay in H226 cells; assay type: cell-based, human; conditions: Homo sapiens, NCI-H226, H226 cells; read-out: H226 EC50
Procedure: as §1, §2

[4] = Mouse pharmacokinetics study; assay type: in vivo; conditions: mouse, BALB/c mice, 10 mg/kg oral gavage, 5% DMS/95% PEG400, plasma
Procedure: Formulated compounds were administered intravenously or orally via gavage to BALB/c mice. Typically, at 0.167, 0.5, 1, 2, 4, 6, 12, and 24 hours post-dose, blood was collected and processed to plasma by centrifugation and stored at −80° C. until analysis. Internal standard was added to each sample prior to protein precipitation with acetonitrile or TCA. The precipitates were filtered through a filter plate and the samples were analyzed by LC/MS/MS. A standard curve was prepared in plasma from typically from 1.0 ng/mL to 3000 ng/mL and processed in the same manner as the samples. Sample analysis was typically performed on a suitable LC/MS/MS system fitted with an analytical UPLC column and compounds eluted from the analytical column with a gradient from 30-95% 0.1% formic acid (v/v) in ACN: 0.1% formic acid (v/v) in water. Mass spectrometric detection of test compound and the internal standard was performed by […] in positive mode. The pharmacokinetics of each compound were analyzed by Phoenix WinNonlin software (Pharsight, St. Louis, Mo.) via noncompartmental analysis. FIG. 4 depicts pharmacokinetic (PK) properties of isomer 1 of compound I-186 following dosing in BALB/c mice.

EC50 [2] [nM] | EC50 [3] [nM] | AUC(0-t) [4] [ng·h/mL] | Cmax ([4]; read-out: Cmax) [ng/mL] | SMILES | EC50 [1] [nM]
100 to 500 | 100 to 500 | 1140 | 735 | C=CC(=O)NC1CCN(Cc2ccc(C(F)(F)F)cc2)CC1 [Compound I-46, N-[1-[[4-(Trifluoromethyl)phenyl]methyl]-4-piperidyl]prop-2-enamide] | > 500
> 500 | > 500 |  |  | C=CC(=O)NC1CCN(Cc2ccccc2C(F)(F)F)CC1 [Compound I-49, N-[1-[[2-(trifluoromethyl)phenyl]methyl]-4-piperidyl]prop-2-enamide] | > 500
> 500 | > 500 |  |  | C=CC(=O)NC1CCN(S(=O)(=O)c2ccc(C(F)(F)F)cc2)CC1 [Compound I-50, N-[1-[4-(trifluoromethyl)phenyl]sulfonyl-4-piperidyl]prop-2-enamide] | > 500

The next lines start with the compound.

SMILES | EC50 [2] [nM] | EC50 [3] [nM] | AUC(0-t) [4] [ng·h/mL] | Cmax ([4]; read-out: Cmax) [ng/mL] | EC50 [1] [nM]
C=CC(=O)Nc1ccc(C)c(N(C)c2cccc(C(F)(F)F)c2)c1 [Compound I-35, N-[4-methyl-3-[N-methyl-3-(trifluoromethyl)anilino]phenyl]prop-2-enamide] | < 100 | < 100 |  |  | > 500
C=CC(=O)Nc1ccc(Br)c(Nc2cccc(C(F)(F)F)c2)c1 [Compound I-36, N-[4-bromo-3-[3-(trifluoromethyl)anilino]phenyl]prop-2-enamide] | < 100 | < 100 |  |  | > 500
C=CC(=O)Nc1ccc(-c2cn(C)cn2)c(Nc2cccc(C(F)(F)F)c2)c1 [Compound I-40, N-[4-(1-methylimidazol-4-yl)-3-[3-(trifluoromethyl)anilino]phenyl]prop-2-enamide] | < 100 | < 100 |  |  | > 500
